“And” between values parts separate entries of the source, which are not always exact repeats. Equal entries are not always repeated.
What was measured:
Format in all cases: cell-based
[1] = molecular target: panel of 320 non-olfactory GPCRs (Homo sapiens, UniProt Q99527)
[2] = molecular target: panel of 320 non-olfactory GPCRs (Homo sapiens, UniProt P21453)
[3] = molecular target: panel of 320 non-olfactory GPCRs (Homo sapiens, UniProt Q8IZF3)
[4] = molecular target: panel of 320 non-olfactory GPCRs (Homo sapiens, UniProt P35410)
[5] = molecular target: panel of 320 non-olfactory GPCRs (Homo sapiens, UniProt Q9UJ42)
[6] = molecular target: panel of 320 non-olfactory GPCRs (Homo sapiens, UniProt P28335)
[7] = molecular target: panel of 320 non-olfactory GPCRs (Homo sapiens, UniProt P23945)
[8] = molecular target: panel of 320 non-olfactory GPCRs (Homo sapiens, UniProt Q9BZJ6)
[9] = molecular target: panel of 320 non-olfactory GPCRs (Homo sapiens, UniProt P30411)
[10] = molecular target: panel of 320 non-olfactory GPCRs (Homo sapiens, UniProt Q7Z7M1)
[11] = molecular target: panel of 320 non-olfactory GPCRs (Homo sapiens, UniProt P41231)
[12] = molecular target: panel of 320 non-olfactory GPCRs (Homo sapiens, UniProt P34969)
[13] = molecular target: panel of 320 non-olfactory GPCRs (Homo sapiens, UniProt P28221)
[14] = molecular target: panel of 320 non-olfactory GPCRs (Homo sapiens, UniProt P43657)
[15] = molecular target: panel of 320 non-olfactory GPCRs (Homo sapiens, UniProt Q9NS75)
[16] = molecular target: panel of 320 non-olfactory GPCRs (Homo sapiens, UniProt P08912)
[17] = molecular target: panel of 320 non-olfactory GPCRs (Homo sapiens, UniProt P08173)
[18] = molecular target: panel of 320 non-olfactory GPCRs (Homo sapiens, UniProt Q96RI8)
[19] = molecular target: panel of 320 non-olfactory GPCRs (Homo sapiens, UniProt Q9Y2T6)
[20] = molecular target: panel of 320 non-olfactory GPCRs (Homo sapiens, UniProt Q9NZD1)
[21] = molecular target: panel of 320 non-olfactory GPCRs (Homo sapiens, UniProt Q9BPV8)
[22] = molecular target: panel of 320 non-olfactory GPCRs (Homo sapiens, UniProt Q8IYL9)
[23] = molecular target: panel of 320 non-olfactory GPCRs (Homo sapiens, UniProt P61073)
[24] = molecular target: panel of 320 non-olfactory GPCRs (Homo sapiens, UniProt Q13585)
[25] = molecular target: panel of 320 non-olfactory GPCRs (Homo sapiens, UniProt P16473)
[26] = molecular target: panel of 320 non-olfactory GPCRs (Homo sapiens, UniProt P51810)
[27] = molecular target: panel of 320 non-olfactory GPCRs (Homo sapiens, UniProt P35367)
[28] = molecular target: panel of 320 non-olfactory GPCRs (Homo sapiens, UniProt Q13258)
[29] = molecular target: panel of 320 non-olfactory GPCRs (Homo sapiens, UniProt O00254)
[30] = molecular target: panel of 320 non-olfactory GPCRs (Homo sapiens, UniProt P32745)
[31] = molecular target: panel of 320 non-olfactory GPCRs (Homo sapiens, UniProt P28223)
[32] = molecular target: panel of 320 non-olfactory GPCRs (Homo sapiens, UniProt Q15760)
[33] = molecular target: panel of 320 non-olfactory GPCRs (Homo sapiens, UniProt O43193)
[34] = molecular target: panel of 320 non-olfactory GPCRs (Homo sapiens, UniProt Q99788)
[35] = molecular target: panel of 320 non-olfactory GPCRs (Homo sapiens, UniProt Q92633)
[36] = molecular target: panel of 320 non-olfactory GPCRs (Homo sapiens, UniProt P35414)
[37] = molecular target: panel of 320 non-olfactory GPCRs (Homo sapiens, UniProt P50052)

Chain of panel of 320 non-olfactory GPCRs (Homo sapiens, UniProt Q7Z7M1) (Q7Z7M1 whole entry): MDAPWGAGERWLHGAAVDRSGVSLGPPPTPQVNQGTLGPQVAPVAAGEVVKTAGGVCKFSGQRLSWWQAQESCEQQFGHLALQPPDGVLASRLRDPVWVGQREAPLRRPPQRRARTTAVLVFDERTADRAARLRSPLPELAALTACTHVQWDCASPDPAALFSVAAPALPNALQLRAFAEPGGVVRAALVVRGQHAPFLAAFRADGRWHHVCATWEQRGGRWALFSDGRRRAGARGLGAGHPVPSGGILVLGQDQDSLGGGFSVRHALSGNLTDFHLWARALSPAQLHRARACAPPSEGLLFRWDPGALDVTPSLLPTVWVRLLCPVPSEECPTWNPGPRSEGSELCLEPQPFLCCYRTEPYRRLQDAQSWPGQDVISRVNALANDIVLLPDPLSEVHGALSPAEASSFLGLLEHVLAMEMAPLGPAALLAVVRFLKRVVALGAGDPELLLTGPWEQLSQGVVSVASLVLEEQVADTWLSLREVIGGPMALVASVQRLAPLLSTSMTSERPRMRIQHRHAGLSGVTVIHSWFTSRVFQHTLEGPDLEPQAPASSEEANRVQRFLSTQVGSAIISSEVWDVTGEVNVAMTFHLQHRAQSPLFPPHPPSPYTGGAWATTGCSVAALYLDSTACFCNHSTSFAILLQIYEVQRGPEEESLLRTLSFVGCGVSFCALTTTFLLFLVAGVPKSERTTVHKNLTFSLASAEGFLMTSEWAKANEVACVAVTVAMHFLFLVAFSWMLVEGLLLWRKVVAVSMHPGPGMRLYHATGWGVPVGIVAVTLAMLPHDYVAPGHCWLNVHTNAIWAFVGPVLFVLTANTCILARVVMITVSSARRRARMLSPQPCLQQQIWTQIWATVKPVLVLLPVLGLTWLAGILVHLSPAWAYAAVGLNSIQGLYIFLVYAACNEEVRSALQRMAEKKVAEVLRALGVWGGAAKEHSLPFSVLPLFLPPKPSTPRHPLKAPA
Chain of panel of 320 non-olfactory GPCRs (Homo sapiens, UniProt P28223) (P28223 whole entry): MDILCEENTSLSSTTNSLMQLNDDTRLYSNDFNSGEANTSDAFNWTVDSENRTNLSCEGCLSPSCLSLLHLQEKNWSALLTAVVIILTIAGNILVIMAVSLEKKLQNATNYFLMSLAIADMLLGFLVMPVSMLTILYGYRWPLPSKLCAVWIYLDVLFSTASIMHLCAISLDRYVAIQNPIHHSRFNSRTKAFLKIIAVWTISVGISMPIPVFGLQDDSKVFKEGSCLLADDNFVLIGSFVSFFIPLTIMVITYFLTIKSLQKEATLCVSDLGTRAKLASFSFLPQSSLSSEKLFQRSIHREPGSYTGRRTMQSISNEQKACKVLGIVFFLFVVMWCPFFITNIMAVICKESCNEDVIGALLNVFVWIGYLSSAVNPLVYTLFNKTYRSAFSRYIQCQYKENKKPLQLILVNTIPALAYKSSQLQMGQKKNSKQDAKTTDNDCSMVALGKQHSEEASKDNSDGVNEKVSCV
Chain of panel of 320 non-olfactory GPCRs (Homo sapiens, UniProt Q9BZJ6) (Q9BZJ6 whole entry): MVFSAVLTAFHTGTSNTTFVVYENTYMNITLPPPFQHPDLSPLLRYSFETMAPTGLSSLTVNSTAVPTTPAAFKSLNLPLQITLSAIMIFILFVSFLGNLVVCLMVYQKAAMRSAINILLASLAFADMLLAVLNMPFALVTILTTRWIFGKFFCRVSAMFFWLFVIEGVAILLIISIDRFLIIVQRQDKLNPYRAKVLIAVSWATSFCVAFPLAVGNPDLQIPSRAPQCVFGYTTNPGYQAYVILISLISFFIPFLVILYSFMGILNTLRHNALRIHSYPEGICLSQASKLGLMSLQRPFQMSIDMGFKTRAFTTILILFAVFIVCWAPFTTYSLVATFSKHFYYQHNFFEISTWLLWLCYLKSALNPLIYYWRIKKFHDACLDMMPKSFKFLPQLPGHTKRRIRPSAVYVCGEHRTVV
Chain of panel of 320 non-olfactory GPCRs (Homo sapiens, UniProt P51810) (P51810 whole entry): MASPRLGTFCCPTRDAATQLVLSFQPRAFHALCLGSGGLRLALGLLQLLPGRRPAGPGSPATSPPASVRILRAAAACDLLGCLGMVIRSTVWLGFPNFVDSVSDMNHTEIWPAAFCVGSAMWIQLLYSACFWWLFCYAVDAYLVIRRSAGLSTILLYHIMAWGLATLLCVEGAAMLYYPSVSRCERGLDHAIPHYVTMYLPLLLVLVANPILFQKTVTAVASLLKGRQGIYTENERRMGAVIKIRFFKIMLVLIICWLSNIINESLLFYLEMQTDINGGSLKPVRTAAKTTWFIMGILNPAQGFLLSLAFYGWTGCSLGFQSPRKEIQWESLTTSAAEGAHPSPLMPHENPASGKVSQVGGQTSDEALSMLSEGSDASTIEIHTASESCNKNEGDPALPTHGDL
Chain of panel of 320 non-olfactory GPCRs (Homo sapiens, UniProt Q92633) (Q92633 whole entry): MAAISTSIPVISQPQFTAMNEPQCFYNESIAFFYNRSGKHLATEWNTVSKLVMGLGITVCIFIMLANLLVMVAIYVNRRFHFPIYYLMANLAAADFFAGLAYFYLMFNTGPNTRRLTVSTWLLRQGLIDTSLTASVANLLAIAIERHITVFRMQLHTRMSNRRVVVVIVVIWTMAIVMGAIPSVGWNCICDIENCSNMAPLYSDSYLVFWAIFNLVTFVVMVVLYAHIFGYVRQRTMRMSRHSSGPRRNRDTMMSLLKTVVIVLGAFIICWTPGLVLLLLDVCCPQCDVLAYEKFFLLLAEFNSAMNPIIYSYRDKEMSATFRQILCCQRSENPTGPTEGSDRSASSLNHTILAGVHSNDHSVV
Chain of panel of 320 non-olfactory GPCRs (Homo sapiens, UniProt Q8IZF3) (Q8IZF3 22-695): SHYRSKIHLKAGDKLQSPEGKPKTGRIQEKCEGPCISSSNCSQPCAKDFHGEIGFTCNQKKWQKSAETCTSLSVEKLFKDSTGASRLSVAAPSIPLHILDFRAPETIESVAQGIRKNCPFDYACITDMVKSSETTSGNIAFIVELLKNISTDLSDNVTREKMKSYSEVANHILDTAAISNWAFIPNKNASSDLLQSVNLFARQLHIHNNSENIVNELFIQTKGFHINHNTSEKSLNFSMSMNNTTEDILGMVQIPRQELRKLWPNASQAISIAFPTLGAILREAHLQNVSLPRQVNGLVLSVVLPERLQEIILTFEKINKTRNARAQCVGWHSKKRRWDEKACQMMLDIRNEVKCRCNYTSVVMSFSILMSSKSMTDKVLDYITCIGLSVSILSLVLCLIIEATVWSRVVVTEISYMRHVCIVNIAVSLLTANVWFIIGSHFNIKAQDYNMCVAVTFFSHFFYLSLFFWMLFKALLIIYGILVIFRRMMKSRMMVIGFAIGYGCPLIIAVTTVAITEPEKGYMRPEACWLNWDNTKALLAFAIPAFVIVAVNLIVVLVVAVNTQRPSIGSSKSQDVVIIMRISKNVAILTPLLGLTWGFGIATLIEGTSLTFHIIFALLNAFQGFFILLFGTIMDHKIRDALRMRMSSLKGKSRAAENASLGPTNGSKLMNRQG
Chain of panel of 320 non-olfactory GPCRs (Homo sapiens, UniProt P32745) (P32745 whole entry): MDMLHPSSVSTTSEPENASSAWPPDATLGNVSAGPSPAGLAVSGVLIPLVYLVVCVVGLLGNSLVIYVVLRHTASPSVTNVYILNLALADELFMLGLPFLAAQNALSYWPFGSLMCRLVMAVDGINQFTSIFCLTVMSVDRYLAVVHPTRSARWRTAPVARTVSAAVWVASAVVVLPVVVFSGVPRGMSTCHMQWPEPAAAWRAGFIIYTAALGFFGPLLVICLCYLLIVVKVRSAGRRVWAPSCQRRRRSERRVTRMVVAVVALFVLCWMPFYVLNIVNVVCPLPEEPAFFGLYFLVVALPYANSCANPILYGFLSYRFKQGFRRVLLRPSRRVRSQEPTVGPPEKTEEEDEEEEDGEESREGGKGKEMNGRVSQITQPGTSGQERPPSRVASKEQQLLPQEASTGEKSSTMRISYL
Chain of panel of 320 non-olfactory GPCRs (Homo sapiens, UniProt P28221) (P28221 whole entry): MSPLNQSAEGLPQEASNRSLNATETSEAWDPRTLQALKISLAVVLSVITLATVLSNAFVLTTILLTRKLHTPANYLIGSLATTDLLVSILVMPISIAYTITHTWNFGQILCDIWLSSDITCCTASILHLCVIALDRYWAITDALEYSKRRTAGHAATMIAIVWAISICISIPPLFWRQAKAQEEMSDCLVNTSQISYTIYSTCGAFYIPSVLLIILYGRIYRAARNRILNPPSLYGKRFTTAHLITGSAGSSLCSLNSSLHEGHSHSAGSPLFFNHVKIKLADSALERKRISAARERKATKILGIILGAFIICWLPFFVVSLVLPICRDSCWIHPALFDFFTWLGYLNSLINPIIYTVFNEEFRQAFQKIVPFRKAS
Chain of panel of 320 non-olfactory GPCRs (Homo sapiens, UniProt P35367) (P35367 whole entry): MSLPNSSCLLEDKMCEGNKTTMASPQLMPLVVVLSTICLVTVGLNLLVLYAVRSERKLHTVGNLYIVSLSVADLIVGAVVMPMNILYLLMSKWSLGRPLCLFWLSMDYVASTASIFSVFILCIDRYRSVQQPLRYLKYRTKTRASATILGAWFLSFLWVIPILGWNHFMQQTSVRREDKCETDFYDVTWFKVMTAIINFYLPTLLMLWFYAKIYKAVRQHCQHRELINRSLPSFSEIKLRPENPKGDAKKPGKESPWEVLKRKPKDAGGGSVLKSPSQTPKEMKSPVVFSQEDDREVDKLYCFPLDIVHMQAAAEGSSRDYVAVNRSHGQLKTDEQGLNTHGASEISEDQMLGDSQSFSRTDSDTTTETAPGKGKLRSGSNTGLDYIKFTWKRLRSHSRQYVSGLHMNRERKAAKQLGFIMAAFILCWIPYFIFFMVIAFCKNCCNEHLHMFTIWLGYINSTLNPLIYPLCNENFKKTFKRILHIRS
Chain of panel of 320 non-olfactory GPCRs (Homo sapiens, UniProt Q9NS75) (Q9NS75 whole entry): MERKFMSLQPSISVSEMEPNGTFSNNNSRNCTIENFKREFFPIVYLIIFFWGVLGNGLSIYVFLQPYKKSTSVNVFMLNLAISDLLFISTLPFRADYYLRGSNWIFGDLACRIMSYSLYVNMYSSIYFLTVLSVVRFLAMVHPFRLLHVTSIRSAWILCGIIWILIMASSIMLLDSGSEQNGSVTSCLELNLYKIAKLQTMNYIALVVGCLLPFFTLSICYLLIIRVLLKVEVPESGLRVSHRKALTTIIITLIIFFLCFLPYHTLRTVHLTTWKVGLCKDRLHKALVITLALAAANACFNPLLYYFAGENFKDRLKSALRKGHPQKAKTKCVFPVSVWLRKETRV

COC(=O)[C@@](C)(NC(=O)c1cc(C)n(-c2cccc(C(F)(F)F)c2)n1)c1cccs1 [‘1350]
Fold of Basal RLU [1]: 1.2 and 1.1 and 0.9 | Fold of Basal RLU [2]: 0.9 fold and 1 fold and 0.8 fold and 0.7 fold | Fold of Basal RLU [3]: 1.1 fold and 0.9 fold | Fold of Basal RLU [4]: 1.9 and 1.3 and 1 and 1.2 | Fold of Basal RLU [5]: 0.7 fold and 1.1 fold and 1 fold | Fold of Basal RLU [6]: 1.6 fold and 1 fold and 1.3 fold and 1.2 fold | Fold of Basal RLU [7]: 1 fold and 1.2 fold and 0.7 fold and 0.8 fold | Fold of Basal RLU [8]: 1.1 fold and 1 fold and 0.8 fold | Fold of Basal RLU [9]: 0.9 fold and 1 fold and 0.8 fold | Fold of Basal RLU [10]: 1.1 and 0.9 and 1.3 and 0.7 | Fold of Basal RLU [11]: 1.3 fold and 1.4 fold and 1 fold | Fold of Basal RLU [12]: 0.9 fold and 1.4 fold and 1 fold | Fold of Basal RLU [13]: 1.1 fold and 0.9 fold and 1.2 fold | Fold of Basal RLU [14]: 0.9 fold and 1 fold and 1.1 fold and 0.7 fold | Fold of Basal RLU [15]: 1.3 and 1.4 and 1.8 | Fold of Basal RLU [16]: 0.9 fold and 1.4 fold and 1.1 fold and 1.7 fold | Fold of Basal RLU [17]: 1 and 1.1 and 0.6 and 0.8 | Fold of Basal RLU [18]: 0.9 fold and 1.2 fold and 1.1 fold and 0.8 fold | Fold of Basal RLU [19]: 1.4 fold and 1.3 fold and 1.5 fold | Fold of Basal RLU [20]: 1.1 and 1 and 0.6 and 0.8 | Fold of Basal RLU [21]: 1 fold and 1.1 fold and 1.4 fold and 1.6 fold | Fold of Basal RLU [22]: 0.9 fold and 0.8 fold and 1 fold | Fold of Basal RLU [23]: 1.2 fold and 1.1 fold and 1.3 fold | Fold of Basal RLU [24]: 0.9 and 0.7 and 1.3 and 1 | Fold of Basal RLU [25]: 0.7 and 0.8 and 0.6 and 0.9 | Fold of Basal RLU [26]: 1.2 and 0.9 and 0.8 and 1 | Fold of Basal RLU [27]: 0.9 fold and 1 fold and 1.1 fold | Fold of Basal RLU [28]: 0.9 and 0.6 and 0.8 | Fold of Basal RLU [29]: 0.9 fold and 1.1 fold | Fold of Basal RLU [30]: 0.8 and 0.9 and 0.7 | Fold of Basal RLU [31]: 0.9 fold and 0.8 fold | Fold of Basal RLU [32]: 0.9 fold and 1.2 fold and 1 fold | Fold of Basal RLU [33]: 0.7 and 0.6 | Fold of Basal RLU [34]: 1.1 and 1 and 1.2 | Fold of Basal RLU [35]: 1.3 fold and 1 fold and 1.2 fold | Fold of Basal RLU [36]: 0.9 fold and 1.1 fold and 1.2 fold and 1 fold | Fold of Basal RLU [37]: 1.1 fold and 1 fold

Cc1cc(C(=O)NC(C)(c2ccco2)c2ccco2)nn1-c1cccc(C(F)(F)F)c1 [‘4936]
Fold of Basal RLU [1]: 1.9 and 1.3 and 1.5 and 1.4 | Fold of Basal RLU [2]: 1.2 fold and 0.7 fold and 1.1 fold | Fold of Basal RLU [3]: 1 fold and 1.2 fold and 0.6 fold | Fold of Basal RLU [4]: 0.8 and 0.4 and 0.6 | Fold of Basal RLU [5]: 0.8 fold and 1.1 fold and 0.9 fold | Fold of Basal RLU [6]: 1.5 fold and 1.3 fold and 1.1 fold | Fold of Basal RLU [7]: 1 fold and 0.7 fold and 0.8 fold and 1.1 fold | Fold of Basal RLU [8]: 1.1 fold and 1.2 fold and 0.8 fold and 0.9 fold | Fold of Basal RLU [9]: 1.1 fold and 1.3 fold and 0.9 fold and 1.2 fold | Fold of Basal RLU [10]: 0.9 and 0.6 and 1.1 | Fold of Basal RLU [11]: 0.9 fold and 1.2 fold and 1 fold and 1.1 fold | Fold of Basal RLU [12]: 1 fold and 1.5 fold and 1.8 fold | Fold of Basal RLU [13]: 1.2 fold and 1.1 fold | Fold of Basal RLU [14]: 0.7 fold and 0.8 fold | Fold of Basal RLU [15]: 1.5 and 1.7 and 1.4 and 2.3 | Fold of Basal RLU [16]: 1 fold and 1.1 fold and 0.9 fold and 0.8 fold | Fold of Basal RLU [17]: 0.7 and 1.1 and 1 and 0.6 | Fold of Basal RLU [18]: 0.8 fold and 1.3 fold and 0.7 fold | Fold of Basal RLU [19]: 1.1 fold and 1.7 fold and 1.4 fold | Fold of Basal RLU [20]: 0.8 and 0.6 and 0.9 | Fold of Basal RLU [21]: 1.3 fold and 1.5 fold and 1.7 fold and 1.8 fold | Fold of Basal RLU [22]: 1.1 fold and 1 fold | Fold of Basal RLU [23]: 1 fold and 1.3 fold and 1.2 fold | Fold of Basal RLU [24]: 0.8 and 0.6 and 0.5 and 0.7 | Fold of Basal RLU [25]: 0.7 and 0.6 and 0.9 | Fold of Basal RLU [26]: 1 and 0.7 and 1.1 | Fold of Basal RLU [27]: 0.9 fold and 1.1 fold and 1.2 fold and 1.5 fold | Fold of Basal RLU [28]: 1.5 and 1.4 and 1.6 and 2.3 | Fold of Basal RLU [29]: 1 fold and 0.7 fold and 0.9 fold and 1.1 fold | Fold of Basal RLU [30]: 1.3 and 0.7 and 1 | Fold of Basal RLU [31]: 1.2 fold and 1 fold and 1.4 fold | Fold of Basal RLU [32]: 0.8 fold and 1 fold | Fold of Basal RLU [33]: 2 and 1.6 and 1.3 and 1.1 | Fold of Basal RLU [34]: 1.1 and 1 and 0.9 | Fold of Basal RLU [35]: 1.1 fold and 1 fold and 0.9 fold | Fold of Basal RLU [36]: 1.1 fold and 1.4 fold and 1.2 fold | Fold of Basal RLU [37]: 1.1 fold and 1.2 fold and 0.9 fold
